Assay results taken from article PMC4111244 (Bioorganic & medicinal chemistry letters, 2013).
Like-named read-outs stand apart in the source and are kept apart here.

Tests used:
[1] = tested on: T. cruzi amastigotes; test: Activity against T. cruzi amastigotes in culture; assay type: cell-based, Trypanosoma cruzi; conditions: for EC50: Trypanosoma cruzi, read-out: T. cruzi EC50(nM), T. cruzi amastigotes in culture; for fold drop in potency on replacement of the aniline moiety: versus amino compound (compound 2); for fold increase in potency compared with compound 12: T. cruzi cultures
[2] = tested on: T. cruzi amastigotes; conditions: read-out: EC50 against T.cruzi in culture; cited from earlier work
[3] = target: T. cruzi sterol 14α-demethylase (CYP51) (Trypanosoma cruzi, UniProt Q7Z1V1); test: Spectral response; conditions: P450 2.2 μM; titration range 0.4-7.6 μM
[4] = tested on: T. cruzi; conditions: ref previous studies; cited from earlier work

Chain of T. cruzi sterol 14α-demethylase (CYP51) (Q7Z1V1 whole entry): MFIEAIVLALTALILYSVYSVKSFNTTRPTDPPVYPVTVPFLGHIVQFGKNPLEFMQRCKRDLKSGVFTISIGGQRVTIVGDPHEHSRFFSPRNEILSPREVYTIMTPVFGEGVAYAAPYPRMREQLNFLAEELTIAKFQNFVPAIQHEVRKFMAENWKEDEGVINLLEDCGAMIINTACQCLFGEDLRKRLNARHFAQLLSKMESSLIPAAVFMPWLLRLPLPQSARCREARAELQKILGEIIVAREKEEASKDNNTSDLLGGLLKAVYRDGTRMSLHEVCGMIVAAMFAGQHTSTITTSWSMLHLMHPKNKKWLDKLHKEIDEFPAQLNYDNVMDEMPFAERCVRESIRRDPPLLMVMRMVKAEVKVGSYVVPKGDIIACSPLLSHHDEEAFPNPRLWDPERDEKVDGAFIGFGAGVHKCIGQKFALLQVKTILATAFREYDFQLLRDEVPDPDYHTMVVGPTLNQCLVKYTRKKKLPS

## Nc1cc(-c2ccccc2)ccc1Cn1cncc1CNc1ccc(Cl)c(-n2ccnc2)c1 [Compound 36h]
[1]
  EC50: < 10 nM

## Cc1cc(NCc2cncn2Cc2ccc(-c3ccccc3)cc2N)ccc1Cl [Compound 36j]
[1]
  activity against T.cruzi amastigotes (in words): excellent activity

## Nc1cc(-c2ccccc2)ccc1Cn1cncc1CNc1ccc(F)cc1 [Compound 36p]
[1]
  activity against T.cruzi amastigotes (in words): excellent activity

## Fc1cc(-c2ccccc2)ccc1Cn1cncc1CNc1ccc(F)c(-c2ccccc2)c1 [Compound 24a]
[1]
  EC50: < 20 nM

## O=C(O)c1cc(-c2ccccc2)ccc1Cn1cncc1CNc1ccc(-c2nc3ccccc3s2)c(-c2ccccc2)c1 [Compound 24q]
[1]
  fold drop in potency on replacement of the aniline moiety: > 27 fold

## COc1cc(-c2ccccc2)ccc1Cn1cncc1CNc1ccc(Cl)c(-c2ccccc2)c1 [Compound 24n]
[1]
  fold drop in potency on replacement of the aniline moiety: > 27 fold

## Oc1cc(-c2ccccc2)ccc1Cn1cncc1CNc1ccc(Cl)c(-c2ccccc2)c1 [Compound 24o]
[1]
  fold drop in potency on replacement of the aniline moiety: > 27 fold

## CC[C@@H]([C@H](C)O)n1ncn(-c2ccc(N3CCN(c4ccc(OC[C@@H]5CO[C@@](Cn6cncn6)(c6ccc(F)cc6F)C5)cc4)CC3)cc2)c1=O [posaconazole]
[2]
  EC50: < 1 nM

## COc1ccc(NCc2cncn2Cc2ccc(-c3ccccc3)cc2N)nc1-c1ccccc1 [Compound 26c]
[3]
  binding to the haem moiety in the CYP51 active site (spectral type): Soret Type II binding spectra

## Nc1cc(-c2ccccc2)ccc1Cn1cncc1CNc1ccc(-c2nc3ccccc3s2)c(-c2ccccc2)c1 [Compound 2]
[4]
  efficacy in the acute model of the disease: highly efficacious
[1]; versus compound 12
  fold increase in potency compared with compound 12: 20 fold

## Nc1cc(-c2ccccc2)ccc1Cn1cncc1CNc1ccc(Cl)c(Cl)c1 [Compound 36f]
[1]
  EC50: < 10 nM

## Nc1cc(-c2ccccc2)ccc1Cn1cncc1CNc1ccc(Cl)cc1 [Compound 36k]
[1]
  activity against T.cruzi amastigotes (in words): excellent activity

## Nc1ccc(-c2cc(NCc3cncn3Cc3ccc(-c4ccccc4)cc3)ccc2-c2nc3ccccc3s2)cc1 [Compound 12k]
[1]; versus compound 12
  fold increase in potency compared with compound 12: > 10 fold

## Fc1ccc(NCc2cncn2Cc2ccc(-c3ccccc3)cc2F)cc1 [Compound 24b]
[1]; against T. cruzi, versus compound 12
  fold drop in potency compared with compound 12: less than 4 fold
